Assay results taken from article PMC6264549, “Synthesis and Biological Evaluation of 3-Substituted-indolin-2-one Derivatives Containing Chloropyrrole Moieties” (Molecules, 2011).

Key:
[1] = tested on: non-small cell lung cancer (A549); assay: MTT cell growth inhibition assay, A549; type: cell-based; details: Homo sapiens, 48 h, A549 cells, two days, read-out: IC50 ± SD A549
Procedure: (§1) The antitumor activities of 14a-r were evaluated in vitro on four tumor cell lines, including non-small cell lung cancer (A549), oral epithelial (KB), melanoma (K111) and large cell lung cancer cell lines (NCI-H460) by the MTT assay, and the results are summarized in Table 1.
(§2) Non-small cell lung cancer (A549), oral epithelial (KB), large cell lung cancer (NCI-H460) and melanoma cell lines (K111) were cultured in Dulbecco’s modified Eagle medium (GIBCO) containing 10% (v/v) inactivated newborn calf serum (Boren Bio-Pharmaceutical Co., Ltd.: Guangzhou, China), […] L-glutamine (SANGON), […] penicillin, 100 µg/mL streptomycin. Cells were grown in a 5% CO2 incubator at 37 °C.
(§3) The antitumor activities were determined by the MTT assay. Cells (2 × 10^3 cells/well) were seeded in 96-well plates. After incubation overnight, each compound, which was dissolved in dimethylsulfoxide (DMSO) and diluted with phosphate buffer solution (PBS), was added to each well and the cells were cultured for another two days at 37 °C. 20 μL (5 mg/mL) MTT solution was added to per well and the culture continued for another 3–4 h. The medium was removed and 100 μL DMSO was added to dissolve formazan crystals. Absorbance was measured at 492 nm using an ELISA reader (Thermo). The antitumor activities were expressed as IC50.

[2] = tested on: oral epithelial (KB); assay: MTT cell growth inhibition assay, KB; type: cell-based; details: Homo sapiens, 48 h, KB cells, two days
Procedure: as §1, §2, §3

[3] = tested on: melanoma (K111); assay: MTT cell growth inhibition assay, K111; type: cell-based; details: 48 h, K111 cells, two days, read-out: IC50 ± SD K111
Procedure: as §1, §2, §3

[4] = tested on: large cell lung cancer cell lines (NCI-H460); assay: MTT cell growth inhibition assay, NCI-H460; type: cell-based; details: Homo sapiens, 48 h, NCI-H460 cells, two days, read-out: IC50 ± SD NCI-H460
Procedure: as §1, §2, §3

[5] = target: VEGFR2 tyrosine kinase (Homo sapiens, UniProt P35968); assay: VEGFR2 inhibition assay (ELISA); type: biochemical; details: 5.0 µM ATP, Poly (Glu, Tyr)4:1 substrate, read-out: IC50 ± SD VEGFR2
Procedure: Seven compounds in the 14a–r series with low IC50 values on the tumor cell lines were evaluated for their inhibition of VEGFR2 using an enzyme-linked immunosorbent assay (ELISA), and the data are summarized in Table 2.
The VEGFR2 inhibition assay was performed by enzyme-linked immunosorbent assay (ELISA) in 96-well plates pre-coated with 2.5 µg/well Poly (Glu, Tyr)4:1 as a substrate. Each well was treated with 90 µL of 5.0 µM ATP (Amresco) solution and 10 µL of one of the seven compounds at varying concentrations, which were diluted in reaction buffer (50 mM HEPES pH 7.4, 20 mM MgCl2, 0.1 mM Na3VO4, 1 mM DTT). […] The reaction was initiated by adding 1 µL/well of VEGFR2 tyrosine kinase. After incubation for 1 h at 37 °C, the plates were washed three times with phosphate buffered saline containing 0.1% Tween-20 (T-PBS). Next, anti-phosphotyrosine (PY99; 1:1,000 dilution, 100 μL/well) antibody was added. After 1 h incubation at room temperature, the plates were washed three times, and goat anti-mouse IgG horseradish peroxidase (100 μL/well of 1:2,000 dilution) diluted in T-PBS was added. The plates were reincubated at room temperature for 1 h, and washed as before. Finally, color development solution (0.03% H2O2 and 2 mg/mL o-phenylenediamine in 0.1 M citrate buffer, pH 5.5, 100 µL/well) was added and the plates were incubated at room temperature until color emerged. The reaction was terminated by the addition of 2 M H2SO4 (50 µL/well), and A492 was measured using a tunable wavelength microplate reader (Molecular Devices SPECTRAMAX190). The inhibition rate was calculated using the equation: [1 − (A492/A492 control)] × 100%.

[6] = target: hERG potassium currents (Homo sapiens, UniProt Q12809); assay: Inhibition of hERG potassium currents in HEK239 cells (cardiotoxicity)
[7] = sunitinib-treated patients, pivotal phase III metastatic renal cell carcinoma trial; cited from earlier work

Sequence of VEGFR2 tyrosine kinase (P35968 20-1356): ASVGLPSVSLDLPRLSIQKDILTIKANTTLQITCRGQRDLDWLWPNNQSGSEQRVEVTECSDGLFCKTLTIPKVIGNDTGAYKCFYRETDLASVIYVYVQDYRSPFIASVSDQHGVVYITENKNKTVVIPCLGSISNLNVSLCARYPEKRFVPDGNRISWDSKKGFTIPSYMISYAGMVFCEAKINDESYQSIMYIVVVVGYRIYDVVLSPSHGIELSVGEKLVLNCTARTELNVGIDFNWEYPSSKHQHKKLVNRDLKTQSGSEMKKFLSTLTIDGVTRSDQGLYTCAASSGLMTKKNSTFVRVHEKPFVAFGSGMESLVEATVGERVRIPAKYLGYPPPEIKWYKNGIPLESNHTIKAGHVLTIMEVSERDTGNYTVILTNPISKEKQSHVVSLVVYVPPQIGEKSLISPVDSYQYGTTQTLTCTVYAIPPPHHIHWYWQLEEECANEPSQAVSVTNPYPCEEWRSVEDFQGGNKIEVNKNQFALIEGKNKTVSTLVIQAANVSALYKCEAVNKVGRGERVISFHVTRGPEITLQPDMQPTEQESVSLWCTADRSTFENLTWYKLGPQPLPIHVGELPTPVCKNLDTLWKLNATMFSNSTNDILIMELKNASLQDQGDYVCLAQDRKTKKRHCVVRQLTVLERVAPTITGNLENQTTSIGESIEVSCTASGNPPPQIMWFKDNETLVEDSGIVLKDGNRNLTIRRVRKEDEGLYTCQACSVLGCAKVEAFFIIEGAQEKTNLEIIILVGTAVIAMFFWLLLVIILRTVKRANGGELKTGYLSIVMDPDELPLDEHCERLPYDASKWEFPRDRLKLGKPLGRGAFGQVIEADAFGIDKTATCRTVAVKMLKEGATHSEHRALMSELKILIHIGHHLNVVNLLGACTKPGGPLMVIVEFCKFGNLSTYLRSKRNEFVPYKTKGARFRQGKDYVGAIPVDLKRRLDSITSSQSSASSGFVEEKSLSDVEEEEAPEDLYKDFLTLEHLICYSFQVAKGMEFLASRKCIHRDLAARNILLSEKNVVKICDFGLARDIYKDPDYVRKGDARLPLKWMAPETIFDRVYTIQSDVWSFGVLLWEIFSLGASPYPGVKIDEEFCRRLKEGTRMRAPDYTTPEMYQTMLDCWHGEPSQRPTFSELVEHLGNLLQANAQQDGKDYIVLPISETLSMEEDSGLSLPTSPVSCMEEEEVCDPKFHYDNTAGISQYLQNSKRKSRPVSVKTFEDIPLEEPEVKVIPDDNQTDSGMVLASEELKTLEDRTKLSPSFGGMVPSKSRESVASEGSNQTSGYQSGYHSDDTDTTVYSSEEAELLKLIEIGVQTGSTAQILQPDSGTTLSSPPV
Sequence of hERG potassium currents (Q12809 whole entry): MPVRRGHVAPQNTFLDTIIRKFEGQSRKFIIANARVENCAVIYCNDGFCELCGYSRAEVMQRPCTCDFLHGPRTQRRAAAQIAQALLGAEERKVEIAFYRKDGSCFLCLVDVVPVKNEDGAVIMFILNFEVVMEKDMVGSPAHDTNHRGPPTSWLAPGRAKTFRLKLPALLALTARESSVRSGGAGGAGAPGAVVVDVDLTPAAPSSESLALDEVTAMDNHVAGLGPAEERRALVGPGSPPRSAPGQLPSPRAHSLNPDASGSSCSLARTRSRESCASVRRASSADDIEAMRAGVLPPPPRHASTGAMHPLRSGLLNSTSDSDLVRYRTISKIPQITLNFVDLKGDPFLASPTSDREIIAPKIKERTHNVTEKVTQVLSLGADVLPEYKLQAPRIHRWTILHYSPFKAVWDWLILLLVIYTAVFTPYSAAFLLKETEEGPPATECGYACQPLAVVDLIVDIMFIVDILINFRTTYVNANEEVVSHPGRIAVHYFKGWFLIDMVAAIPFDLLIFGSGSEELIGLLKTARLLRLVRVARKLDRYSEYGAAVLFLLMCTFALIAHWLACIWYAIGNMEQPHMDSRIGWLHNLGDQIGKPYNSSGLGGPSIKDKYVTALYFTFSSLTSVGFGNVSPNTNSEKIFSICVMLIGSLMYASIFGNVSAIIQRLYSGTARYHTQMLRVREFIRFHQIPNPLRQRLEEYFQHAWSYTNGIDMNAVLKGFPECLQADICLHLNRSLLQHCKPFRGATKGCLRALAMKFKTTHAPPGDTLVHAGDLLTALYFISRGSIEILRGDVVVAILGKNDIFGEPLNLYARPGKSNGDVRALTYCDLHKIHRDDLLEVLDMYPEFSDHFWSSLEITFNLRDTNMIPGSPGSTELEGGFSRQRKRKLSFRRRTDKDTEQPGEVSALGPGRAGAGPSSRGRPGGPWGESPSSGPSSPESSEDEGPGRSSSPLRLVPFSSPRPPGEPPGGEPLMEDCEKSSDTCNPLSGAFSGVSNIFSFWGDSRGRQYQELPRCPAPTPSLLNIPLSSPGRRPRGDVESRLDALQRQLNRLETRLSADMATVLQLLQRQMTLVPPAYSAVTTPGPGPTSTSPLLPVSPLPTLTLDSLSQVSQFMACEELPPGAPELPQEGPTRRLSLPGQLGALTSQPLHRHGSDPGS

SMILES | IC50 [1] | IC50 [2] | IC50 [3] | IC50 [4] | IC50 [5] | melting point | IC50 [6] | patients who experienced a decline in LVEF to below normal [7]
CCNCCNC(=O)c1c(Cl)[nH]c(/C=C2\C(=O)Nc3ccc(F)cc32)c1CC [Compound 14r, (Z)-2-Chloro-4-ethyl-N-(2-(ethylamino)ethyl)-5-((5-fluoro-2-oxoindolin-3-ylidene)methyl)-1H-pyrrole-3-carboxamide] | 1490 ± 110 nM | 1430 ± 210 nM | 3720 ± 460 nM | 1220 ± 100 nM | 8.7 ± 1.3 nM | 232 to 233.1 °C |  | 
CCN(CC)CCNC(=O)c1c(C)[nH]c(/C=C2\C(=O)Nc3ccc(F)cc32)c1Cl [Compound 14h, (Z)-4-Chloro-N-(2-(diethylamino)ethyl)-5-((5-fluoro-2-oxoindolin-3-ylidene)methyl)-2-methyl-1H-pyrrole-3-carboxamide] | 1870 ± 260 nM | 1250 ± 100 nM | 1790 ± 120 nM | 32100 ± 3830 nM | 6.8 ± 0.8 nM | 245.6 to 246.9 °C | 452 nM | 
Cc1[nH]c(/C=C2\C(=O)Nc3ccc(F)cc32)c(Cl)c1C(=O)NCCN(C)C [Compound 14f, (Z)-4-Chloro-N-(2-(dimethylamino)ethyl)-5-((5-fluoro-2-oxoindolin-3-ylidene)methyl)-2-methyl-1H-pyrrole-3-carboxamide] | 1690 ± 170 nM | 1560 ± 80 nM | 1350 ± 280 nM | 1670 ± 180 nM | 6.2 ± 0.8 nM | 271.8 to 274.2 °C |  | 
CCN(CC)CCNC(=O)c1c(C)[nH]c(/C=C2\C(=O)Nc3ccc(F)cc32)c1C [Sunitinib, sunitinib, reference compound] | 2930 ± 250 nM | 2600 ± 180 nM | 3830 ± 430 nM | 4790 ± 620 nM |  |  |  | 21%
CCN(CC)CCNC(=O)c1c(C)[nH]c(/C=C2\C(=O)Nc3ccc(Cl)cc32)c1Cl [Compound 14i, (Z)-4-Chloro-5-((5-chloro-2-oxoindolin-3-ylidene)methyl)-N-(2-(diethylamino)ethyl)-2-methyl-1H-pyrrole-3-carboxamide] | 320 ± 30 nM | 1150 ± 200 nM | > 100000 nM | > 100000 nM | 11.2 ± 2.6 nM | 246 to 247 °C |  | 
Cc1[nH]c(/C=C2\C(=O)Nc3ccc(F)cc32)c(Cl)c1C(=O)NC1CNC1 [Compound 14c, (Z)-N-(azetidin-3-yl)-4-chloro-5-((5-fluoro-2-oxoindolin-3-ylidene)methyl)-2-methyl-1H-pyrrole-3-carboxamide] | 2430 ± 260 nM | 1350 ± 120 nM | 3410 ± 520 nM | 1410 ± 170 nM | 6.8 ± 1.8 nM | 230.5 to 232 °C |  | 
CCNCCNC(=O)c1c(Cl)[nH]c(/C=C2\C(=O)Nc3ccc(F)cc32)c1C [Compound 14p, (Z)-2-Chloro-N-(2-(ethylamino)ethyl)-5-((5-fluoro-2-oxoindolin-3-ylidene)methyl)-4-methyl-1H-pyrrole-3-carboxamide] | 1410 ± 90 nM | 690 ± 70 nM | 1240 ± 160 nM | 1660 ± 230 nM | 6 ± 1.2 nM | 215 to 216.8 °C |  | 
CCNCCNC(=O)c1c(C)[nH]c(/C=C2\C(=O)Nc3ccc(F)cc32)c1Cl [Compound 14g, (Z)-4-Chloro-N-(2-(ethylamino)ethyl)-5-((5-fluoro-2-oxoindolin-3-ylidene)methyl)-2-methyl-1H-pyrrole-3-carboxamide] | 1030 ± 90 nM | 670 ± 80 nM | 1190 ± 210 nM | 1410 ± 90 nM | 5 ± 1.1 nM | 211 to 211.8 °C | 430 nM | 
CCN(CC)CCNC(=O)c1c(C)[nH]c(/C=C2\C(=O)Nc3ccccc32)c1Cl [Compound 14k, (Z)-4-Chloro-N-(2-(diethylamino)ethyl)-2-methyl-5-((2-oxoindolin-3-ylidene)methyl)-1H-pyrrole-3-carboxamide] | > 100000 nM | 5090 ± 1010 nM | > 100000 nM | > 100000 nM |  | 238.5 to 240.1 °C |  | 
CCN(CC)CCNC(=O)c1c(Cl)[nH]c(/C=C2\C(=O)Nc3ccc(F)cc32)c1C [Compound 14o, (Z)-2-Chloro-N-(2-(diethylamino)ethyl)-5-((5-fluoro-2-oxoindolin-3-ylidene)methyl)-4-methyl-1H-pyrrole-3-carboxamide] | 2140 ± 260 nM | 1510 ± 110 nM | > 100000 nM | > 100000 nM |  | 243.4 to 244 °C |  | 
